Assays:
cytochrome P450 enzymes = test: first pass metabolism / inactivation in the intestinal hepatic region; assay type: in vivo; details: inactivation by cytochrome P450 enzymes in the intestinal hepatic region
oral bioavailability = assay type: in vivo
[1] = biological target: T1, glucocorticosteroid receptors (Homo sapiens, UniProt P04150); test: affinity for and activity at glucocorticosteroid receptors; assay type: binding; details: compared to other very potent topical steroids
T1 sequence (P04150 1-777): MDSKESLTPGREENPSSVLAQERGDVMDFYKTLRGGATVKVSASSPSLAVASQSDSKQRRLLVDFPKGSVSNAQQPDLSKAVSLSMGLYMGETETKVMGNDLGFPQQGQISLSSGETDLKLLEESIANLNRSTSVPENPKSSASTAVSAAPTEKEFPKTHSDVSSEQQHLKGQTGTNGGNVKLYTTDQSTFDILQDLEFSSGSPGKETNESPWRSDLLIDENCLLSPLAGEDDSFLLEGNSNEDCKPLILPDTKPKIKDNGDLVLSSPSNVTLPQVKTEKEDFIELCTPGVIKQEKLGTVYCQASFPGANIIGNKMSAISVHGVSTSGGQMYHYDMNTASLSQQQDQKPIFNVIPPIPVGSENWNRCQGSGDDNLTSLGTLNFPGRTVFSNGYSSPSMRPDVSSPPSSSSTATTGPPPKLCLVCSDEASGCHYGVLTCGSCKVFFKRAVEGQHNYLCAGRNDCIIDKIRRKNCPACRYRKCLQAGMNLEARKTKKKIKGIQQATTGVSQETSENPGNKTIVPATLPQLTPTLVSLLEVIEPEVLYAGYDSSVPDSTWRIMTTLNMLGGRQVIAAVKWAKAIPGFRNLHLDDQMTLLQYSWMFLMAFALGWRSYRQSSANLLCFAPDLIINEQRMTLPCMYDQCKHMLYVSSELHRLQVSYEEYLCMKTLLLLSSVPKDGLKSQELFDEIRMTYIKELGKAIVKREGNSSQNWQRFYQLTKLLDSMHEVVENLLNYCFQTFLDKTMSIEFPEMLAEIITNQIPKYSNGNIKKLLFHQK

[2] = water solubility for dissolution distribution in intestinal fluids; assay type: physicochemical
[3] = treatment of irritable bowel syndrome (IBS); details: in vivo
Method: For testing the effect of rofleponide, its esters and salts in post-infectious irritable bowel syndrome the intestinal neuromuscular dysfunction after acute nematode infection in mice are measured in accordance with the method described in Gasteroenterology 1997, vol. 133, p.1224-1232.

CCC[C@@H]1O[C@@H]2C[C@H]3[C@@H]4C[C@H](F)C5=CC(=O)CC[C@]5(C)[C@@]4(F)[C@@H](O)C[C@]3(C)[C@]2(C(=O)CO)O1 [rofleponide, (22R)-16-alpha, 17 alpha-butylidenedioxy-6-alpha, 9alpha-difluoro-11beta,21-dihydroxypregn-4-ene-3,20-dione]
first pass metabolism (cytochrome P450 enzymes): at least 99%
oral bioavailability (oral bioavailability): ≤ 1%
affinity for and activity at glucocorticosteroid receptors [1]: very high
water solubility [2]: sufficient
effect in the treatment of irritable bowel syndrome (IBS) [3]: effective

Source: patent US20030004214A1, “Use of rofleponide in the treatment of irritable bowel syndrome (ibs)” (priority 2000, published 2003)
